We go through 6 molecules from the supplement of paper PMC11061612.

What all share (experiment): Bliss excess, mean over the matrix (fraction); higher = more synergy
Experiment [1] deals with SNU-387 (Hepatocellular Carcinoma). In short, it runs like this:
(§1)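 Cell lines in DMEM/F12 or RPMI with 10% FBS were plated in 1536-well plates, held 24 hours at 37°C, 5% CO2, then given two-drug dose matrices for 72 hours (DMSO typically 0.2%). Viability was read by CellTiter-Glo 2.0 luminescence and scaled as inhibition from 0 (vehicle wells) to 1 (blank wells). Combination Emax is the second-highest inhibition in the matrix; Bliss excess is observed combination effect minus expected EA + EB − EA·EB, EA and EB being single-agent effects.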

The subject of the next experiment is Hey (Ovarian Carcinoma). In short, it runs like this:
as §1

For experiment [2], the system named is OE33 (Esophageal Adenocarcinoma). In short, it runs like this: as §1
In experiment [3] the test system is G-401 (Other Solid Carcinomas). In short, it runs like this:
as §1

Experiment [4] deals with SW872 (Other Solid Carcinomas). In a few lines: as §1
Experiment [5] has as its system HAL-01 (B-Lymphoblastic Leukemia). In a few lines:
as §1

The test system of a further experiment is COLO-679 (Melanoma). In short, it runs like this:
as §1

The test system of experiment [6] is NCI-H1838 (Lung Adenocarcinoma). In short, it runs like this: as §1
For experiment [7], the system named is MV-4-11 (Acute Myeloid Leukemia). In a few lines:
as §1

Experiment [8] relates to NCI-H650 (Lung Adenocarcinoma). In short, it runs like this:
as §1

Experiment [9] concerns HCC1937 (Breast Carcinoma). In a few lines: as §1
The test system of experiment [10] is MOLT-4 (T-Lymphoblastic Leukemia). In a few lines:
as §1

A further experiment has as its system EW-1 (Ewing's Sarcoma). In a few lines: as §1
The test system of experiment [11] is MDA-MB-453 (Breast Carcinoma). In short, it runs like this: as §1
For experiment [12], the system named is ML-2 (Acute Myeloid Leukemia). In short, it runs like this: as §1
For experiment [13], the system named is A4-Fuk (B-Lymphoblastic Leukemia). In short, it runs like this: as §1
In experiment [14] the test system is NCI-H1993 (Lung Adenocarcinoma). In a few lines: as §1
Experiment [15] deals with KOPN-8 (B-Lymphoblastic Leukemia). In short, it runs like this:
as §1

In experiment [16] the test system is Ca-Ski (Cervical Carcinoma). In short, it runs like this: as §1
The test system of the next experiment is SK-N-AS (Neuroblastoma). In a few lines:
as §1

Take `CN(C)CCCOc1ccc(-c2ccc3ncc4c(c3c2)n(C2CCOCC2)c(=O)n4C)cn1` [AZD0156] + C=CCn1c(=O)c2cnc(Nc3ccc(N4CCN(C)CC4)cc3)nc2n1-c1cccc(C(C)(C)O)n1 [AZD1775] (first compound max 1 µM, partner max 1 µM): the Bliss excess is -0.054 in experiment [1]; -0.0242 with Hey (Ovarian Carcinoma); 0.0402 in experiment [2]; -0.0734 in [3]; -0.0183 in experiment [4]; 0.053 in [5]. Besides, the Bliss excess in the experiment with COLO-679 (Melanoma) is -0.0433; in [6] it was -0.0296; in experiment [7] it was -0.0306; in [8] it was -0.0593; in experiment [9], -0.0734; in [10], 0.0118. Also, the Bliss excess in the experiment with EW-1 (Ewing's Sarcoma) is -0.0281; in experiment [11], -0.0736; in experiment [12] it was -0.014; in experiment [13], -0.0274; in experiment [14], -0.0699; in experiment [15], -0.0256. For the same molecule, the figures for the Bliss excess (in experiment [16]; with SK-N-AS (Neuroblastoma)) were -0.0291 and -0.0492, respectively.

`CN(C)CCCOc1ccc(-c2ccc3ncc4c(c3c2)n(C2CCOCC2)c(=O)n4C)cn1` [AZD0156] + CCN(CCO)CCCOc1ccc2c(Nc3cc(CC(=O)Nc4cccc(F)c4)[nH]n3)ncnc2c1 [AZD2811] (first compound max 1 µM, 7x7, partner max 1 µM): the Bliss excess in experiment [1] is -0.0569; with Hey (Ovarian Carcinoma), 0.0051; in experiment [2], -0.0173; in experiment [3], -0.0279; in experiment [4], -0.0311; in experiment [5] it was 0.0135. The Bliss excess in the experiment on COLO-679 (Melanoma) was -0.0093; in experiment [6], -0.0122; in [7], -0.0383; in experiment [8] it was -0.0159; in experiment [9] it was -0.0387; in experiment [10], 0.0107. Moreover, the Bliss excess in the experiment on EW-1 (Ewing's Sarcoma) was 0.0446; in experiment [11] it was -0.0208; in experiment [12] it was -0.0594; in experiment [13], 0.0911; in [14] it was -0.0335; in experiment [15] it was 0.0535. Besides, the Bliss excess in [16] is 0.008; in the experiment with SK-N-AS (Neuroblastoma) it was -0.014.

For `CN(C)CCCOc1ccc(-c2ccc3ncc4c(c3c2)n(C2CCOCC2)c(=O)n4C)cn1` [AZD0156] + C[C@@H]1COCCN1C2=NC(=NC(=C2)C3(CC3)[S@](=N)(=O)C)C4=C5C=CNC5=NC=C4 [AZD6738] (first compound max 1 µM, 7x7, partner max 10 µM), the Bliss excess in experiment [1] is 0.0187; in the experiment with Hey (Ovarian Carcinoma), -0.019; in experiment [2], -0.0451; in experiment [3] it was -0.0017; in experiment [4], 0.0187; in [5], -0.0648. For the same molecule, the Bliss excess in the experiment with COLO-679 (Melanoma) was 0.0164; in [6], -0.0082; in [7], -0.06; in [8], -0.011; in [9] it was -0.0386; in experiment [10], 0.0033. Also, the Bliss excess in the experiment with EW-1 (Ewing's Sarcoma) was 0.042; in [11] it was -0.0229; in experiment [12] it was -0.0248; in [13] it was -0.0079; in [14], -0.0329; in experiment [15], -0.0166. Besides, the Bliss excess was -0.0036 in [16] and -0.0108 with SK-N-AS (Neuroblastoma).

In the case of `C=CCn1c(=O)c2cnc(Nc3ccc(N4CCN(C)CC4)cc3)nc2n1-c1cccc(C(C)(C)O)n1` [AZD1775] + O=C(c1cc(Cc2n[nH]c(=O)c3ccccc23)ccc1F)N1CCN(C(=O)C2CC2)CC1 [Olaparib] (first compound max 1 µM, partner max 10 µM), the Bliss excess in experiment [1] was -0.075; in the experiment with Hey (Ovarian Carcinoma), -0.0327; in experiment [2], 0.0117; in experiment [3] it was -0.0999; in [4], 0.0141; in experiment [5], -0.0542. Moreover, the Bliss excess in the experiment with COLO-679 (Melanoma) is -0.0076; in experiment [6] it was -0.0774; in experiment [7], 0.0445; in experiment [8], -0.0532; in [9] it was -0.0813; in experiment [10] it was 0.0101. Moreover, the Bliss excess with EW-1 (Ewing's Sarcoma) was -0.0235; in experiment [11], -0.0441; in [12] it was 0.0099; in experiment [13] it was -0.0794; in [14], -0.0631; in [15], -0.016. Besides, the Bliss excess in experiment [16] was -0.0474; with SK-N-AS (Neuroblastoma) it was -0.0075.

As for `CCN(CCO)CCCOc1ccc2c(Nc3cc(CC(=O)Nc4cccc(F)c4)[nH]n3)ncnc2c1` [AZD2811] + C=CCn1c(=O)c2cnc(Nc3ccc(N4CCN(C)CC4)cc3)nc2n1-c1cccc(C(C)(C)O)n1 [AZD1775] (first compound max 1 µM, partner max 1 µM), the Bliss excess in experiment [1] was -0.0155; in the experiment with Hey (Ovarian Carcinoma), 0.0154; in experiment [2], 0.0006; in experiment [3], 0.0421; in experiment [4], 0.0203; in experiment [5], 0.0495. For the same molecule, the Bliss excess was -0.0325 in the experiment with COLO-679 (Melanoma); -0.0575 in experiment [6]; -0.0626 in experiment [7]; 0.0178 in [8]; -0.0331 in experiment [9]; 0.0151 in experiment [10]. Also, the Bliss excess in the experiment on EW-1 (Ewing's Sarcoma) was -0.0026; in experiment [11], 0.0236; in experiment [12], -0.102; in [13], -0.0665; in [14], 0.0219; in experiment [15], 0.0507. The Bliss excess came to 0.0123 in experiment [16] and 0.0108 in the experiment with SK-N-AS (Neuroblastoma).

For the molecule `CCN(CCO)CCCOc1ccc2c(Nc3cc(CC(=O)Nc4cccc(F)c4)[nH]n3)ncnc2c1` [AZD2811] + C[C@@H]1COCCN1C2=NC(=NC(=C2)C3(CC3)[S@](=N)(=O)C)C4=C5C=CNC5=NC=C4 [AZD6738] (first compound max 1 µM, 7x7, partner max 10 µM), the Bliss excess in experiment [1] was -0.0864; in the experiment on Hey (Ovarian Carcinoma), -0.0498; in experiment [2] it was -0.0167; in experiment [3] it was -0.0518; in experiment [4], -0.0219; in experiment [5] it was 0.0306. In addition, the Bliss excess in the experiment on COLO-679 (Melanoma) was -0.103; in experiment [6] it was -0.0107; in experiment [7] it was -0.0118; in experiment [8], -0.0422; in experiment [9] it was -0.0972; in experiment [10], -0.0208. In addition, the Bliss excess in the experiment on EW-1 (Ewing's Sarcoma) is 0.0268; in experiment [11] it was -0.0352; in experiment [12], -0.0428; in experiment [13], -0.008; in experiment [14], -0.0726; in experiment [15] it was 0.032. For the same molecule, the Bliss excess in experiment [16] was -0.0273; in the experiment on SK-N-AS (Neuroblastoma) it was -0.0365.
